Experiments:
[1] = test system: antocyanin production; experiment: Inhibitory effect on antocyanin production in red cabbage seedlings in water culture; type: in vivo, red cabbase (var.: Ruby Ball); settings: 5 days at 25°C under 8000 luxes, in contrast to the non-treated plot
Experimental: Water culture (10 ml) containing the compound (I) was charged in a reaction vessel, and on adsorbed cotton laid down therein 15 seeds of red cabbase (var.: Ruby Ball) were sowed and cultivated for 5 days at 25°C under 8000 luxes. The shoot of the […] cabbage was cut and antocyanin was extracted with 1N hydrochloric acid (5 ml). The amount of antocyanin thus extracted was calculated by meauring an absorption at 535 nm on a spectrophotometer. The concentration of the compound (I) which inhibits 50 % the antocyanin production was calculated in contrast to the non-treated plot. Still, neither abnormality in the vegetative part nor suppression of growth of the test plant due to Compound (I) could be observed.

[2] = test system: morningglory; experiment: Inhibitory effect on antocyanin production in morningglory (soil or foliar treatment); type: in vivo, morningglory (var.: Scarlet Ohara); settings: soil and foliar spray treatments
Experimental: Seeds of morningglory (var.: Scarlet Ohara) was sowed in small pots (diameter, 8 cm) and cultivated in a greenhouse. At the time of development of cotyledons (9 days after sowing), short-day treatment was performed for 1 week to induce flowering. Five days prior to flowering (length of buds being about 1 to 2 cm), a designated amount of the compound (I) was applied to the soil or sprayed to the foliage of the plant. Cultivation was continued, and color of petals was visually observed in contrast to the non-treated plot and evaluated into five indices ranging from (-: no influence) to (++++: completely whitened).

[3] = test system: wheat; experiment: Inhibitory effect on lignin production in wheat and softening of wheat culm; type: in vivo, Wheat (var.: Nohrin No. 61); design: key: -: unchanged; +++: prominently softened; settings: wettable powder applied to the soil, hardness of culms determined manually versus untreated
Source text: Wheat seeds (var.: Nohrin No. 61) were sowed in small pots (6 seeds/pot) and cultivated in a greenhouse for about one month. When differentiation of culm was recognized, a designated amount of the compound in the form of a wettable powder according to Formulation Example 2 was applied to the soil, and cultivation was continued until blooming. Hardness of wheat culms in contrast to those of untreated was manually determined and evaluated into four indices ranging from (-: unchanged) to (+++: prominently softened).

[4] = test system: chlorogenic acid production; experiment: Inhibitory effect on chlorogenic acid production in sunflower; type: in vivo, Sunflowers (var.: Russian Sunflower); settings: 1000 ppm wettable powder sprayed over the flowers; seed endosperm, HPLC; non-treated 3.4
Experimental: Sunflowers (var.: Russian Sunflower) were grown in a greenhouse for two weeks and transplanted in Wagner's pots (1/5000 are) and cultivated for 2 months outdoors. When 5 to 10 days elapsed after blooming, a designated amount of the compound in the form of a wettable powder according to Formulation Example 2 was sprayed over the flowers, from which seeds were harvested. Endosperm of the seeds were crushed and subjected to boiling-extraction with ethanol and filtration. The filtrate was diluted with 0.05 M aqueous H₃PO₄ and further filtered. The amount of chlorogenic acid was quantitatively analysed by HPLC (column: Nucleosil C18 (8 mm x 25 cm); eluent: methanol : 0.05 M H₃PO₄ (35 : 75)).

[5] = test system: scopolamine production; experiment: Promoting effect on scopolamine production in hairy root culture; type: cell-based, Duboisia leichhardtii; settings: per culture (50 ml), 28 days after addition
Experimental: Hairy root of Duboisia leichhardtii are known to produce scopolamine once vegetative parts were infected with Agrobacterium rhizogenes (Plant Science, 59, 191 - 201 (1989)). One hairy root of Duboisia (var.: DL47-1) (wet content, 100 mg) was inoculated in a liquid HF-3 medium (50 ml) and subjected to rotation-culture with a speed of 85 rotations/min at 25°C in the dark place. After twenty-one days, 1000-fold dilution of a dimethylsulfoxide solution of Compound (I) was added to the culture medium to make its final concentration constant. Twenty-eight days thereafter, scopolamine in the hairy roots and the medium was respectively extracted and its amount was measured on a high performance liquid chromatography (HPLC).

NOC(Cc1ccccc1)C(=O)O (stereo not shown) [AOPP, 2-aminoxy-3-phenylpropionic acid, reference compound]
Concentration of 50 % inhibition of antocyanin production [1]: 4 ppm
phytotoxicity / adverse effect in the treated plants [2]: severe phytotoxicity (withering of leaves)

Cc1c(F)cccc1NC(=N)C(=O)O [Compound No. 1, N-(3-fluoro-2-methylphenyl)amidinoformic acid]
Softening index ([3]; 4 mg/pot): +++
Concentration of 50 % inhibition of antocyanin production [1]: 0.04 ppm
Content of chlorogenic acid [4]: 1.3 µg/mg fr.wt
Amount of scopolamine (mg) Medium ([5]; final concentration 0.1 mg/l): 2.7 mg
Amount of scopolamine (mg) Root ([5]; final concentration 0.1 mg/l): 2.1 mg
Amount of scopolamine (mg) Total ([5]; final concentration 0.1 mg/l): 4.8 mg
Amount of scopolamine (mg) Medium ([5]; final concentration 1.0 mg/l): 3.4 mg
Amount of scopolamine (mg) Root ([5]; final concentration 1.0 mg/l): 2.4 mg
Amount of scopolamine (mg) Total ([5]; final concentration 1.0 mg/l): 5.8 mg

Cc1c(Cl)cccc1NC(=N)C(=O)O [Compound No. 3, N-(3-chloro-2-methylphenyl)amidinoformic acid]
Softening index ([3]; 2 mg/pot): +++
Concentration of 50 % inhibition of antocyanin production [1]: 0.02 ppm
Content of chlorogenic acid [4]: 1.0 µg/mg fr.wt

Cc1ccc(Cl)cc1NC(=N)C(=O)O [Compound No. 4, N-(5-chloro-2-methylphenyl)amidinoformic acid]
Concentration of 50 % inhibition of antocyanin production [1]: 0.1 ppm

Cc1cc(F)ccc1NC(=N)C(=O)O [Compound No. 5, N-(4-fluoro-2-methylphenyl)amidinoformic acid]
Concentration of 50 % inhibition of antocyanin production [1]: 0.1 ppm

CCOC(=O)C(=N)Nc1cccc(F)c1C [Compound No. 26, ethyl N-(3-fluoro-2-methylphenyl)amidinoformate]
Concentration of 50 % inhibition of antocyanin production [1]: 0.06 ppm

Cc1c(Cl)cccc1NC(=N)C(=O)[O-].[Na+] [Compound No. 30, sodium salt of N-(3-chloro-2-methylphenyl)amidinoformic acid]
Concentration of 50 % inhibition of antocyanin production [1]: 0.05 ppm

Cc1c(Cl)cccc1NC(=N)C(=O)[O-].[K+] [Compound No. 31, potassium salt of N-(3-chloro-2-methylphenyl)amidinoformic acid]
Concentration of 50 % inhibition of antocyanin production [1]: 0.05 ppm

— patent EP0406760B1, “Plant growth regulating composition” (SUMITOMO CHEMICAL COMPANY, LIMITED, priority 1989, dated 1991)
